In ChEMBL document CHEMBL1201862, “PubChem BioAssay data set” (2004):
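In this assay, cells in 96-well plates receive the compound at five concentrations for 48 hours. Endpoints are linearly interpolated between the surrounding concentrations. Abbreviation: GI50, concentration required for 50% inhibition of growth.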 Calls of active or inactive are those of the source. Cut-off read from the data, not from the text of the source: active = GI50 up to about 1.1 µM and inactive = higher.

Assays:
Assay in all cases: NCI-60 cell line screen, 48 h
A498 = tested on: A498
A549 = tested on: A549
BT-549 = tested on: BT-549
COLO 205 = tested on: COLO 205
HL-60 = tested on: HL-60
MDA-N = tested on: MDA-N
MOLT-4 = tested on: MOLT-4
OVCAR-8 = tested on: OVCAR-8
RPMI-8226 = tested on: RPMI-8226
SK-MEL-2 = tested on: SK-MEL-2
SK-MEL-5 = tested on: SK-MEL-5
SN12C = tested on: SN12C
SR = tested on: SR
SW-620 = tested on: SW-620
UACC-257 = tested on: UACC-257
CCRF-CEM = tested on: CCRF-CEM
LOX IMVI = tested on: LOX IMVI
M14 = tested on: M14
NCI-H226 = tested on: NCI-H226
SF-268 = tested on: SF-268

SMILES	GI50 (A498)	GI50 (A549)	GI50 (BT-549)	GI50 (COLO 205)	GI50 (HL-60)	GI50 (MDA-N)	GI50 (MOLT-4)	GI50 (OVCAR-8)	GI50 (RPMI-8226)	GI50 (SK-MEL-2)	GI50 (SK-MEL-5)	GI50 (SN12C)	GI50 (SR)	GI50 (SW-620)	GI50 (UACC-257)	GI50 (CCRF-CEM)	GI50 (LOX IMVI)	GI50 (M14)	GI50 (NCI-H226)	GI50 (SF-268)
N[C@H](CCC(=O)NCP(=O)(O)O)C(=O)O	> 100 µM (inactive)	> 100 µM (inactive)	> 100 µM (inactive)	> 100 µM (inactive)	> 100 µM (inactive)	> 100 µM (inactive)	> 100 µM (inactive)	> 100 µM (inactive)	> 100 µM (inactive)	> 100 µM (inactive)	> 100 µM (inactive)	> 100 µM (inactive)	> 100 µM (inactive)	> 100 µM (inactive)	> 100 µM (inactive)	–	–	–	–	–
O=c1oc2ccc(Cl)cc2c2ccccc12	75.7 µM (inactive)	63.4 µM (inactive)	13.4 µM (inactive)	65.8 µM (inactive)	> 100 µM (inactive)	> 100 µM (inactive)	> 100 µM (inactive)	65 µM (inactive)	> 100 µM (inactive)	18.6 µM (inactive)	67.6 µM (inactive)	> 100 µM (inactive)	> 100 µM (inactive)	> 100 µM (inactive)	> 100 µM (inactive)	> 100 µM (inactive)	> 100 µM (inactive)	> 100 µM (inactive)	27.5 µM (inactive)	20.7 µM (inactive)
C=CCC(CCC(C)=O)(C(=O)OCC)C(=O)OCC	> 100 µM (inactive)	> 100 µM (inactive)	> 100 µM (inactive)	> 100 µM (inactive)	> 100 µM (inactive)	> 100 µM (inactive)	> 100 µM (inactive)	> 100 µM (inactive)	> 100 µM (inactive)	> 100 µM (inactive)	> 100 µM (inactive)	> 100 µM (inactive)	> 100 µM (inactive)	> 100 µM (inactive)	> 100 µM (inactive)	> 100 µM (inactive)	–	> 100 µM (inactive)	> 100 µM (inactive)	> 100 µM (inactive)
CC(C)(C)N1CSC(=S)N(Cc2ccco2)C1	13.3 µM (inactive)	5.4 µM (inactive)	2.79 µM (inactive)	3.65 µM (inactive)	1.53 µM (inactive)	2.85 µM (inactive)	1.45 µM (inactive)	2.12 µM (inactive)	0.177 µM (active)	3.55 µM (inactive)	3.61 µM (inactive)	4.35 µM (inactive)	0.555 µM (active)	1.21 µM (inactive)	10.3 µM (inactive)	1.08 µM (active)	3.05 µM (inactive)	2.46 µM (inactive)	20.3 µM (inactive)	3.93 µM (inactive)
CCOP(=O)(OCC)C(F)(F)CC1CCCCC1	> 10 µM (inactive)	> 10 µM (inactive)	> 10 µM (inactive)	> 10 µM (inactive)	> 10 µM (inactive)	> 10 µM (inactive)	> 10 µM (inactive)	> 10 µM (inactive)	> 10 µM (inactive)	> 10 µM (inactive)	> 10 µM (inactive)	> 10 µM (inactive)	> 10 µM (inactive)	> 10 µM (inactive)	> 10 µM (inactive)	> 10 µM (inactive)	> 10 µM (inactive)	> 10 µM (inactive)	> 10 µM (inactive)	> 10 µM (inactive)
CN(C)CCS/C(=N\c1ccccc1)N1C=COC=C1	> 100 µM (inactive)	> 100 µM (inactive)	> 100 µM (inactive)	27.2 µM (inactive)	> 77.6 µM (inactive)	24 µM (inactive)	> 84.7 µM (inactive)	37.5 µM (inactive)	61.7 µM (inactive)	17.3 µM (inactive)	19.5 µM (inactive)	27.5 µM (inactive)	68.9 µM (inactive)	21.4 µM (inactive)	18.2 µM (inactive)	> 74.6 µM (inactive)	16 µM (inactive)	18 µM (inactive)	> 46.2 µM (inactive)	15.8 µM (inactive)
C[C@]12CCC3C4=C(CCC3C1CCC2=O)C(=O)[C@H]1O[C@H]1C4=O (some centres not stated)	17.1 µM (inactive)	11 µM (inactive)	1.98 µM (inactive)	4.33 µM (inactive)	2.67 µM (inactive)	7.18 µM (inactive)	0.785 µM (active)	2.09 µM (inactive)	0.641 µM (active)	12.2 µM (inactive)	10 µM (inactive)	2.64 µM (inactive)	0.538 µM (active)	1.78 µM (inactive)	17.4 µM (inactive)	1.12 µM (inactive)	1.89 µM (inactive)	4.05 µM (inactive)	2.18 µM (inactive)	2.31 µM (inactive)
NCCCCNCCCNC(=O)CNC(=O)CC(O)C(N)CCCC(NC(=O)C(CN)NC(=O)C(O)CNC(=O)CC(N)c1ccc(O)cc1)C(=O)O (configuration not stated)	> 10 µM (inactive)	> 10 µM (inactive)	> 10 µM (inactive)	> 10 µM (inactive)	> 10 µM (inactive)	> 10 µM (inactive)	> 10 µM (inactive)	> 10 µM (inactive)	> 10 µM (inactive)	> 10 µM (inactive)	> 10 µM (inactive)	> 10 µM (inactive)	> 10 µM (inactive)	–	> 10 µM (inactive)	> 10 µM (inactive)	> 10 µM (inactive)	> 10 µM (inactive)	> 10 µM (inactive)	> 10 µM (inactive)
O=C1C(c2c(O)[nH]c3ccc(I)cc23)=Nc2ccccc21	1.9 µM (inactive)	3.84 µM (inactive)	7.53 µM (inactive)	11.6 µM (inactive)	> 100 µM (inactive)	6.68 µM (inactive)	49.2 µM (inactive)	2.15 µM (inactive)	9.51 µM (inactive)	3.78 µM (inactive)	2.57 µM (inactive)	9.25 µM (inactive)	10.8 µM (inactive)	13.2 µM (inactive)	17.9 µM (inactive)	39.6 µM (inactive)	4.88 µM (inactive)	14 µM (inactive)	2.55 µM (inactive)	4.07 µM (inactive)
CC(=O)c1cccc(NC2C(N)C(NC(=O)N(C)C)(C(C)O)C(C)(O)C2(O)COC(=O)c2c(C)cccc2O)c1 (configuration not stated)	< 0.001 µM (active)	< 0.001 µM (active)	< 0.001 µM (active)	< 0.001 µM (active)	< 0.001 µM (active)	< 0.001 µM (active)	< 0.001 µM (active)	< 0.001 µM (active)	< 0.001 µM (active)	0.01 µM (active)	< 0.001 µM (active)	< 0.001 µM (active)	< 0.001 µM (active)	< 0.001 µM (active)	0.00113 µM (active)	< 0.001 µM (active)	–	0.0118 µM (active)	< 0.001 µM (active)	0.0263 µM (active)
O=C(/C=C/C(=O)N1CCCC1)N1CCCC1	> 100 µM (inactive)	> 100 µM (inactive)	> 100 µM (inactive)	> 100 µM (inactive)	> 100 µM (inactive)	> 100 µM (inactive)	> 100 µM (inactive)	> 100 µM (inactive)	> 100 µM (inactive)	> 100 µM (inactive)	> 100 µM (inactive)	> 100 µM (inactive)	> 100 µM (inactive)	> 100 µM (inactive)	> 100 µM (inactive)	> 100 µM (inactive)	> 100 µM (inactive)	> 100 µM (inactive)	–	> 100 µM (inactive)
COC(=O)Nc1cc(OCCCOC(C)=O)c2[nH]c(C(=O)OC)cc2c1C[C@H](O)CO	> 100 µM (inactive)	> 100 µM (inactive)	54.7 µM (inactive)	> 100 µM (inactive)	> 100 µM (inactive)	> 100 µM (inactive)	> 100 µM (inactive)	> 100 µM (inactive)	> 100 µM (inactive)	> 100 µM (inactive)	> 100 µM (inactive)	> 100 µM (inactive)	> 100 µM (inactive)	> 100 µM (inactive)	> 100 µM (inactive)	> 100 µM (inactive)	> 100 µM (inactive)	> 100 µM (inactive)	> 100 µM (inactive)	–
COc1ccc(C(=O)O[C@@H]2CCN3CC[C@H](C)[C@H]23)cc1	> 100 µM (inactive)	> 100 µM (inactive)	> 100 µM (inactive)	> 100 µM (inactive)	> 100 µM (inactive)	> 100 µM (inactive)	> 100 µM (inactive)	> 100 µM (inactive)	> 100 µM (inactive)	> 100 µM (inactive)	> 100 µM (inactive)	> 100 µM (inactive)	> 100 µM (inactive)	> 100 µM (inactive)	> 100 µM (inactive)	–	> 100 µM (inactive)	> 100 µM (inactive)	> 100 µM (inactive)	> 100 µM (inactive)
Clc1ncnc2c1nc(C#Cc1ccccc1)n2Cc1ccccc1	> 100 µM (inactive)	84.9 µM (inactive)	20.8 µM (inactive)	16.5 µM (inactive)	7.83 µM (inactive)	5.61 µM (inactive)	3.34 µM (inactive)	12.7 µM (inactive)	–	30 µM (inactive)	32 µM (inactive)	18.8 µM (inactive)	3.08 µM (inactive)	4.09 µM (inactive)	25.8 µM (inactive)	3.78 µM (inactive)	11.2 µM (inactive)	19.1 µM (inactive)	45.3 µM (inactive)	40.9 µM (inactive)
C/C(=N\NC(=S)N1CCCCCCCCCCCC1)c1ccccn1	0.372 µM (active)	0.356 µM (active)	0.0991 µM (active)	0.0522 µM (active)	0.0167 µM (active)	0.126 µM (active)	0.0318 µM (active)	0.147 µM (active)	–	0.299 µM (active)	0.2 µM (active)	0.238 µM (active)	0.0782 µM (active)	0.0652 µM (active)	0.0689 µM (active)	0.0431 µM (active)	0.135 µM (active)	0.214 µM (active)	0.199 µM (active)	0.225 µM (active)
